Data as given in PubChem BioAssay (NCI).
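Assay format: 96-well plates, 48-hour exposure. GI50 is the concentration that inhibits growth by half. TGI: total growth inhibition.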

Legend:
Experiment in all cases: NCI-60 cell line screen, 48 h
MDA-MB-231 breast = tested on: MDA-MB-231 breast
NCI-H23 lung = tested on: NCI-H23 lung
CCRF-CEM leukemia = tested on: CCRF-CEM leukemia
SNB-75 CNS = tested on: SNB-75 CNS
RXF 393 renal = tested on: RXF 393 renal
CAKI-1 renal = tested on: CAKI-1 renal
OVCAR-5 ovarian = tested on: OVCAR-5 ovarian
HCT-15 colon = tested on: HCT-15 colon
UACC-257 melanoma = tested on: UACC-257 melanoma
ACHN renal = tested on: ACHN renal
BT-549 breast = tested on: BT-549 breast
SR leukemia = tested on: SR leukemia
MALME-3M melanoma = tested on: MALME-3M melanoma
HOP-62 NSCLC = tested on: HOP-62 NSCLC
NCI-H226 lung = tested on: NCI-H226 lung
A549 NSCLC = tested on: A549 NSCLC
OVCAR-3 ovarian = tested on: OVCAR-3 ovarian
SF-295 CNS = tested on: SF-295 CNS
K-562 leukemia = tested on: K-562 leukemia
786-0 renal = tested on: 786-0 renal
U251 CNS = tested on: U251 CNS
SN12C renal = tested on: SN12C renal
SW-620 colon = tested on: SW-620 colon
EKVX NSCLC = tested on: EKVX NSCLC
OVCAR-8 ovarian = tested on: OVCAR-8 ovarian
SK-OV-3 ovarian = tested on: SK-OV-3 ovarian
NCI-H460 lung = tested on: NCI-H460 lung
MOLT-4 leukemia = tested on: MOLT-4 leukemia
SNB-19 CNS = tested on: SNB-19 CNS
PC-3 prostate = tested on: PC-3 prostate
HS 578T breast = tested on: HS 578T breast
KM12 colon = tested on: KM12 colon
RPMI-8226 leukemia = tested on: RPMI-8226 leukemia
MDA-MB-435 = tested on: MDA-MB-435
A498 renal = tested on: A498 renal
UACC-62 melanoma = tested on: UACC-62 melanoma
SK-MEL-5 melanoma = tested on: SK-MEL-5 melanoma
TK-10 renal = tested on: TK-10 renal
DU-145 prostate = tested on: DU-145 prostate
SF-268 CNS = tested on: SF-268 CNS
HL-60(TB) leukemia = tested on: HL-60(TB) leukemia
OVCAR-4 ovarian = tested on: OVCAR-4 ovarian
HT29 colon = tested on: HT29 colon
NCI/ADR-RES ovarian = tested on: NCI/ADR-RES ovarian
UO-31 renal = tested on: UO-31 renal
SK-MEL-2 melanoma = tested on: SK-MEL-2 melanoma
HCC-2998 colon = tested on: HCC-2998 colon
IGROV1 ovarian = tested on: IGROV1 ovarian
HOP-92 NSCLC = tested on: HOP-92 NSCLC
SK-MEL-28 melanoma = tested on: SK-MEL-28 melanoma
SF-539 CNS = tested on: SF-539 CNS

## CC(=O)Nc1ccc(NC(=O)Nc2cccc(-c3nc(-c4ccc(NC(=O)c5cccnc5)cc4Cl)no3)c2)cc1C(F)(F)F
MDA-MB-231 breast
  GI50: 658 nM
  TGI: 2330 nM
NCI-H23 lung
  GI50: 601 nM
  TGI: 2190 nM
CCRF-CEM leukemia
  GI50: 395 nM
  TGI: > 100000 nM
SNB-75 CNS
  GI50: 217 nM
  TGI: 814 nM
RXF 393 renal
  GI50: 359 nM
  TGI: 1130 nM
CAKI-1 renal
  GI50: 570 nM
  TGI: 1970 nM
OVCAR-5 ovarian
  GI50: 987 nM
  TGI: 2640 nM
HCT-15 colon
  GI50: 2080 nM
  TGI: > 100000 nM
UACC-257 melanoma
  GI50: 1130 nM
  TGI: 2930 nM
ACHN renal
  GI50: 6040 nM
  TGI: > 100000 nM
BT-549 breast
  GI50: 1120 nM
  TGI: 3040 nM
SR leukemia
  GI50: 296 nM
  TGI: 2350 nM
MALME-3M melanoma
  GI50: 479 nM
  TGI: 1740 nM
HOP-62 NSCLC
  GI50: 739 nM
  TGI: 2700 nM
NCI-H226 lung
  GI50: 729 nM
  TGI: 2240 nM
A549 NSCLC
  GI50: 1070 nM
  TGI: 4430 nM
OVCAR-3 ovarian
  GI50: 382 nM
  TGI: 1420 nM
SF-295 CNS
  GI50: 454 nM
  TGI: 1370 nM
K-562 leukemia
  GI50: 320 nM
  TGI: 1760 nM
786-0 renal
  GI50: 1120 nM
  TGI: 2720 nM
U251 CNS
  GI50: 564 nM
  TGI: 2260 nM
SN12C renal
  GI50: 685 nM
  TGI: 2120 nM
SW-620 colon
  GI50: 430 nM
  TGI: 1860 nM
EKVX NSCLC
  GI50: 1400 nM
  TGI: 9160 nM
OVCAR-8 ovarian
  GI50: 712 nM
  TGI: 3250 nM
SK-OV-3 ovarian
  GI50: 1290 nM
  TGI: 3030 nM
NCI-H460 lung
  GI50: 411 nM
  TGI: 1480 nM
MOLT-4 leukemia
  GI50: 620 nM
  TGI: 3000 nM
SNB-19 CNS
  GI50: 477 nM
  TGI: 2150 nM
PC-3 prostate
  GI50: 477 nM
  TGI: 2180 nM
HS 578T breast
  GI50: 503 nM
  TGI: 2990 nM
KM12 colon
  GI50: 438 nM
  TGI: 1790 nM
RPMI-8226 leukemia
  GI50: 538 nM
  TGI: 2900 nM
MDA-MB-435
  GI50: 174 nM
  TGI: 406 nM
A498 renal
  GI50: 435 nM
  TGI: 1510 nM
UACC-62 melanoma
  GI50: 412 nM
  TGI: 1630 nM
SK-MEL-5 melanoma
  GI50: 612 nM
  TGI: 1930 nM
TK-10 renal
  GI50: 1990 nM
  TGI: 4670 nM
DU-145 prostate
  GI50: 519 nM
  TGI: 4320 nM
SF-268 CNS
  GI50: 1100 nM
  TGI: 3380 nM
HL-60(TB) leukemia
  GI50: 307 nM
  TGI: 1130 nM
OVCAR-4 ovarian
  GI50: 1070 nM
  TGI: 2620 nM
HT29 colon
  GI50: 380 nM
  TGI: 1690 nM
NCI/ADR-RES ovarian
  GI50: > 100000 nM
  TGI: > 100000 nM
UO-31 renal
  GI50: 4300 nM
  TGI: > 35700 nM
SK-MEL-2 melanoma
  GI50: 1270 nM
  TGI: 3290 nM
HCC-2998 colon
  GI50: 998 nM
  TGI: 2560 nM
IGROV1 ovarian
  GI50: 739 nM
  TGI: 2340 nM
HOP-92 NSCLC
  GI50: 1280 nM
  TGI: 3010 nM
SK-MEL-28 melanoma
  GI50: 890 nM
  TGI: 2200 nM
SF-539 CNS
  GI50: 341 nM
  TGI: 1250 nM
